{"source": "ChEMBL document CHEMBL5137065", "about": "“Recent Advances with KDM4 Inhibitors and Potential Applications” (J Med Chem, 2022)", "key": {"[1]": {"experiment": "Permeability of compound in human Caco-2 cells", "type": "ADME, cell-based", "settings": "read-out: permeability"}, "[2]": {"molecular_target": "T1, Lysine-specific demethylase 2A (Homo sapiens, UniProt Q9Y2K7)", "T1 sequence (Q9Y2K7 whole entry)": "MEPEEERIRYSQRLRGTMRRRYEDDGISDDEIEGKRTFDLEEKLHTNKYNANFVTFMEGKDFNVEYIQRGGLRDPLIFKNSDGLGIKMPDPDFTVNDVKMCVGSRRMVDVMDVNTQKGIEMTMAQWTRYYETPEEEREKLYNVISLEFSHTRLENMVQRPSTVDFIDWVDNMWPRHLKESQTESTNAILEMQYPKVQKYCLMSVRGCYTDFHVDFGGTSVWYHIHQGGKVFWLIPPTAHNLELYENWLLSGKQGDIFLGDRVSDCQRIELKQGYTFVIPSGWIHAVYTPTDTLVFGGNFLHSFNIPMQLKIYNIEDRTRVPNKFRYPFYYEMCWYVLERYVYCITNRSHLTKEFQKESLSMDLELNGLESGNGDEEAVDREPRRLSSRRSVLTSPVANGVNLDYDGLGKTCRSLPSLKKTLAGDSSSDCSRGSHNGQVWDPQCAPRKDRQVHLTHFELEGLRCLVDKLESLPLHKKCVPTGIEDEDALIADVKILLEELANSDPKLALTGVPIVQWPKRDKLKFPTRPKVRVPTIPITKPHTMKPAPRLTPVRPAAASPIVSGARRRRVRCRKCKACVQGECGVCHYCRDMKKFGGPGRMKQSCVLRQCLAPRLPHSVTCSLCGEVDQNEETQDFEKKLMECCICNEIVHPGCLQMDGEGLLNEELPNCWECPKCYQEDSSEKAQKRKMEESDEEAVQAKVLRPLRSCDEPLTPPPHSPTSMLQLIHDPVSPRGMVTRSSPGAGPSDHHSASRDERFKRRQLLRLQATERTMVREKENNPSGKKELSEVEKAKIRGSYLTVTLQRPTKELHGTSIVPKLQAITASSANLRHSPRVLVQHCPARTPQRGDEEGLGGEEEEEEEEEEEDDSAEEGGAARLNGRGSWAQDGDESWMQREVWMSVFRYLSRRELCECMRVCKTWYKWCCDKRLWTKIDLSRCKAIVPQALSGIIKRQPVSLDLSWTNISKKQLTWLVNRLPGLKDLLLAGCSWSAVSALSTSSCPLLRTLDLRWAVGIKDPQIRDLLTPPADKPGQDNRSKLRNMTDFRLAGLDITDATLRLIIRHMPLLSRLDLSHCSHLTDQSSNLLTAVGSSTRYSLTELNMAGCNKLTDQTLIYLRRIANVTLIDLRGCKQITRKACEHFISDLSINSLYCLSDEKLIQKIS", "experiment": "Inhibition of KDM2A in human MIA PaCa-2 cells assessed as induction of H3K36me2 measured by immunofluorescence assay", "type": "cell-based"}, "[3]": {"molecular_target": "T2, Lysine-specific demethylase 4A (Homo sapiens, UniProt O75164)", "T2 sequence (O75164 whole entry)": "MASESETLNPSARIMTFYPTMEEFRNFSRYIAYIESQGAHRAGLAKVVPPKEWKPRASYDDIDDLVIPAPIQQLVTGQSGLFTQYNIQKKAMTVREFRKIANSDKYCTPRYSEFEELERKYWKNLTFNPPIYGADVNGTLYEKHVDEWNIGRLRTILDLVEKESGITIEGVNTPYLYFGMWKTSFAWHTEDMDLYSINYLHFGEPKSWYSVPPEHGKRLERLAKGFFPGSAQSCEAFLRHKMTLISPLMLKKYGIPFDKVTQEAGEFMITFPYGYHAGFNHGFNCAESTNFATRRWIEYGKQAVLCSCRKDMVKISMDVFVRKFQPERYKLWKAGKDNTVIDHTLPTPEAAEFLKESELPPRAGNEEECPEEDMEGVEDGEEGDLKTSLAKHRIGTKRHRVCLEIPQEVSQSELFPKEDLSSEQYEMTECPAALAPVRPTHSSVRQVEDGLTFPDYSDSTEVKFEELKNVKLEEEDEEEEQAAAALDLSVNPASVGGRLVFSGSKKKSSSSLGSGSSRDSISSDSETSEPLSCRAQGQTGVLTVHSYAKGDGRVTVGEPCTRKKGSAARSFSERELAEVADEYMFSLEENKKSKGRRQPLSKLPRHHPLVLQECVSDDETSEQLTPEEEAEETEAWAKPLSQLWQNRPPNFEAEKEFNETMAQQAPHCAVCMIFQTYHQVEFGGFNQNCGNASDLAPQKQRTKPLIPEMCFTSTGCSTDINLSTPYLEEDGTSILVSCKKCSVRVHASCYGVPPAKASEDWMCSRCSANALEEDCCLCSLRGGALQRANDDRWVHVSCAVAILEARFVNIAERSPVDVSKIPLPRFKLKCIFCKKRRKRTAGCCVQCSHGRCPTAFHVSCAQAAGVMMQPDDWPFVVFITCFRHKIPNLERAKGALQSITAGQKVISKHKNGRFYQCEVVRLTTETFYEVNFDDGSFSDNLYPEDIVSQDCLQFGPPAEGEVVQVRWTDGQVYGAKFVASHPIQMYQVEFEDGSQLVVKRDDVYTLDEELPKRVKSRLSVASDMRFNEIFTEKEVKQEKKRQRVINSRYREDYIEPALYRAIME"}, "[4]": {"molecular_target": "T2, Lysine-specific demethylase 4A", "remark": "listed apart in the source"}, "[5]": {"molecular_target": "T3, Lysine-specific demethylase 4B (Homo sapiens, UniProt O94953)", "T3 sequence (O94953 whole entry)": "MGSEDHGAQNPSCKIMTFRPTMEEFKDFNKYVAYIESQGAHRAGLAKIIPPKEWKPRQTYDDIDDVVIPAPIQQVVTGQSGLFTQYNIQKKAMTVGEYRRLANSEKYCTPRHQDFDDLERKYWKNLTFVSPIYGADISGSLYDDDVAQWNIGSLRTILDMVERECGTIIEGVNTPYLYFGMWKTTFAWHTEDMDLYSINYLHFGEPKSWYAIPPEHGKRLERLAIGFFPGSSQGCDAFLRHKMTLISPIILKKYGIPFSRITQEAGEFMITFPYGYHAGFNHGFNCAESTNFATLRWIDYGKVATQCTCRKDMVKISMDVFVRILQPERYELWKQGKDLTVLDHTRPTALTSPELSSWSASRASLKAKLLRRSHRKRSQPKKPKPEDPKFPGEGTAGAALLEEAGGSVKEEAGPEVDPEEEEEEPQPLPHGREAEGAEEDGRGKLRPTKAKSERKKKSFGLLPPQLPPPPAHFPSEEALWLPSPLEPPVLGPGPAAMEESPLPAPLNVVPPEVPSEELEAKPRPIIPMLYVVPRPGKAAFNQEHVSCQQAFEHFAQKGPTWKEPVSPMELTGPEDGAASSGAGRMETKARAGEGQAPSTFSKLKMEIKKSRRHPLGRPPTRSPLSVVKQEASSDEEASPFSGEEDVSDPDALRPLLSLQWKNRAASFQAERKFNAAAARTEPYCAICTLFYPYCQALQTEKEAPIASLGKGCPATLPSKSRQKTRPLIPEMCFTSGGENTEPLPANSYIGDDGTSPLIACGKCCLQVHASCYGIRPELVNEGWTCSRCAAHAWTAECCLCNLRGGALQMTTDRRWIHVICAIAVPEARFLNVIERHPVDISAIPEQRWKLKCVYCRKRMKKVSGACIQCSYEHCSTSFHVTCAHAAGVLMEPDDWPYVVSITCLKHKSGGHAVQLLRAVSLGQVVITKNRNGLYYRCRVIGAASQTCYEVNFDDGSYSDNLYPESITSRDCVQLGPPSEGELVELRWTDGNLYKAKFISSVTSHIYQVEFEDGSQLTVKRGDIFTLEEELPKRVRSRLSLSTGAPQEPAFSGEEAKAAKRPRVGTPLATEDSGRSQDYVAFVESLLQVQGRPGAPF", "experiment": "Inhibition of human KDM4B measured by AlphaLISA assay"}, "[6]": {"molecular_target": "T4, Lysine-specific demethylase 4C (Homo sapiens, UniProt Q9H3R0)", "T4 sequence (Q9H3R0 whole entry)": "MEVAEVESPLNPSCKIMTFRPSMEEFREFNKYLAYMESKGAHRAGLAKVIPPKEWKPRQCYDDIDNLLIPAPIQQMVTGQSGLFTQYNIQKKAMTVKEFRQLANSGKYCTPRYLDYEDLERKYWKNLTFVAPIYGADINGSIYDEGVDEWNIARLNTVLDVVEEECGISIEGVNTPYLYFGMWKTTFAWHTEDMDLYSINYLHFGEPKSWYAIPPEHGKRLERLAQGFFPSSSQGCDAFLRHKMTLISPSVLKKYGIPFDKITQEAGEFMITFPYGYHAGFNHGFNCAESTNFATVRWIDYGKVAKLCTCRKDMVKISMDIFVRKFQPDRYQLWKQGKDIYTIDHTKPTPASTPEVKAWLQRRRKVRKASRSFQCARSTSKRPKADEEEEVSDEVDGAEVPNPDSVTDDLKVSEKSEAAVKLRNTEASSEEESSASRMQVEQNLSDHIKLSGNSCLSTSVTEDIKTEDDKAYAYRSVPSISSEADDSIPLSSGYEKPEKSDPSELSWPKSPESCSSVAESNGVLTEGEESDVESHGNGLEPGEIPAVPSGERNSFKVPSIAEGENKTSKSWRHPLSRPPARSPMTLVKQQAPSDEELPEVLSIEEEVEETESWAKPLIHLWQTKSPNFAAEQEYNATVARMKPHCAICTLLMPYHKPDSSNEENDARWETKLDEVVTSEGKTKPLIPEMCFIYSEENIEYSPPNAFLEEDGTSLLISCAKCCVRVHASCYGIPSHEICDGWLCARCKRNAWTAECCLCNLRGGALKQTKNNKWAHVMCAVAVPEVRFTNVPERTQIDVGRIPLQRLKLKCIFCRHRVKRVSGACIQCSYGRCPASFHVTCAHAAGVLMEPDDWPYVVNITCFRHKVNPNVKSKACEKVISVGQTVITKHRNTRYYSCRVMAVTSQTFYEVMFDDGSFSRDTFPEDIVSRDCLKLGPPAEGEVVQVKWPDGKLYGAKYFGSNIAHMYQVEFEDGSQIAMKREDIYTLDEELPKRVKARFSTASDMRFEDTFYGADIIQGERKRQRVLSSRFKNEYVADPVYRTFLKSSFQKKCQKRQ", "experiment": "Inhibition of human KDM4C measured by AlphaLISA assay"}, "[7]": {"molecular_target": "T5, Lysine-specific demethylase 4D (Homo sapiens, UniProt Q6B0I6)", "T5 sequence (Q6B0I6 whole entry)": "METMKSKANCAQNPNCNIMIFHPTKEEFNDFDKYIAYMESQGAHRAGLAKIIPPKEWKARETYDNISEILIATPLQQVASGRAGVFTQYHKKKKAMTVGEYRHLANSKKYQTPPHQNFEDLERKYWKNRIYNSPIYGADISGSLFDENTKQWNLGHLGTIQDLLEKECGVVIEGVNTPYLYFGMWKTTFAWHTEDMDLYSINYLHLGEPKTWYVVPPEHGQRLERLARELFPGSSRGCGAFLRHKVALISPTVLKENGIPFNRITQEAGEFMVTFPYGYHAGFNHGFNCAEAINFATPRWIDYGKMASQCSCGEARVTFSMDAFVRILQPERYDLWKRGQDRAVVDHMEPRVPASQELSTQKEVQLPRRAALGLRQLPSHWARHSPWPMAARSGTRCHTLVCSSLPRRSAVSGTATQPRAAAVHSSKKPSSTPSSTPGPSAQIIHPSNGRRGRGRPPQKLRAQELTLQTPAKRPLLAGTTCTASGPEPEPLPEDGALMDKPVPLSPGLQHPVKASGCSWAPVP", "experiment": "Inhibition of human KDM4D measured by AlphaLISA assay"}, "[8]": {"molecular_target": "T2, Lysine-specific demethylase 4A", "experiment": "Inhibition of binding of H3K4Me3 to KDM4A tudor domain (unknown origin) measured by NanoBRET-based cellular proximity assay"}}, "data": [{"smiles": "CN(C)CCCNC(=O)c1ccc(-c2cc(O)c3ncccc3c2)cc1", "values": [{"measurement": "Papp", "setting": "[1]", "value": 12.5, "unit": "×10⁻⁶ cm/s"}]}, {"smiles": "CN(C)c1ccc(/C=C/c2cc[n+](Cc3ccc(F)cc3)cc2)cc1", "values": [{"measurement": "IC50", "setting": "[2]", "value": 0.28, "unit": "µM"}, {"measurement": "Ki", "setting": "[3]", "value": 0.42, "unit": "µM"}, {"measurement": "IC50", "setting": "[4]", "value": 0.28, "unit": "µM"}]}, {"smiles": "O=C(O)c1cc(O)c(=O)c2c(O)c(O)cc(-c3ccccc3)c2c1", "values": [{"measurement": "IC50", "setting": "[5]", "value": 24.4, "unit": "µM"}, {"measurement": "IC50", "setting": "[6]", "value": 24.4, "unit": "µM"}, {"measurement": "IC50", "setting": "[7]", "value": 24.4, "unit": "µM"}]}, {"smiles": "CN(C)C[C@H]1[C@H]2CC[C@](c3ccccc3)(C2)[C@H]1O", "values": [{"measurement": "EC50", "setting": "[8]", "value": 105, "unit": "µM"}]}]}
